Two molecules from patent US12590118B2, “Salt and crystal form of steroid derivative regulator” (Shanghai Hansoh Biomedical Co., Ltd., priority 2019, dated 2026) can be followed below.

Type in all cases: physicochemical
Series [1] can be described thus: Competitive experiment of different crystal forms of the free base. Particulars: 40° C. The method, then: The stability among crystal forms I, II and III of the free base of Example 40 was investigated, so as to select the stable crystal form.
Multiple portions of about 20 mg of crystal forms I, II and III of the free base of Example 40 were accurately weighed, and mixed in pairs in equal amounts. Methyl tert-butyl ether and n-heptane were added respectively, and the resulting mixture was stirred at 40° C. for 7 days. The mixture was centrifuged at high speed, the supernatant was removed, and the resulting solid precipitate was vacuum dried in an oven at 40° C. and characterized by XRPD.

A short description of series [2]: Solubility experiment (thermodynamic solubility at 37° C.). The conditions noted are these: 24 hours. As for the experimental part: The solubility of the free base and salt of the compound in water, Fasted State Simulated Gastric Fluid (FaSGF), Fasted State Simulated Intestinal Fluid (FaSSIF) and Fed State Simulated Intestinal Fluid (FeSSIF) was compared, so as to provide a basis for evaluating the druggability of the crystal form and salt.
About 2 to 3 mg of crystal forms I, II and III of the free base of Example 40 were weighed, suspended in 1 mL of Fasted State Simulated Gastric Fluid (FaSSGF), Fasted State Simulated Intestinal Fluid (FaSSIF), Fed State Simulated Intestinal Fluid (FeSSIF) and pure water respectively, and shaked for 24 hours. Thermodynamic solubility of the compound at 37° C. was determined using HPLC by external standard method.

Series [3] can be described thus: Hygroscopicity experiment (DVS). Particulars: for hygroscopicity (in words): DVS; for Hygroscopicity (25° C./80% RH): DVS vapour sorption weight gain at 80% RH. As for the experimental part:
The hygroscopicity of crystal forms I, II and III of the free base of Example 40 under different relative humidity conditions was investigated, so as to provide a basis for screening of the crystal form and salt of the compound, production and storage.
10 to 15 mg of the free base of Example 40 was placed in the sample chamber of DVS. DVS was carried out, and the vapour sorption weight gain percentage of the compound at 80% RH was recorded at the same time.

In brackets after ≈: the same amount, converted by molar mass.

A word on the Solubility: it is the concentration that dissolves in the medium under given conditions. Lower therefore signals little dissolved substance. With `C[C@@H]1C[C@H](C(=O)Cn2ccc(C#N)n2)[C@@]2(C)CC[C@H]3[C@@H](CC[C@@H]4C[C@](C)(O)CC[C@@H]43)[C@H]12` [Crystal form II, 1-(2-((3R,5R,8R,9R,10S,13S,14S,15R,17S)-3-Hydroxy-3,13,15-trimethylhexadecahydro-1H-cyclopenta[a]phenanthren-17-yl)-2-oxoethyl)-1H-pyrazole-3-carbonitrile], in series [1], the “solubility in n-heptane (in words)” value is “almost insoluble”. Also, the Solubility in series [2] (FaSSGF) is below 1 µg/mL; in series [2] (FaSSIF), 3.705 µg/mL (≈ 8.75 µM); in series [2] (FeSSIF), 18.495 µg/mL (≈ 43.7 µM); in series [2] (Water) it was below 1 µg/mL. The “hygroscopicity (in words)” value in series [3] is “no hygroscopicity”. Besides, in series [3], the “Hygroscopicity (25° C./80% RH)” value turned out to be 0.03%.
Regarding `C[C@@H]1C[C@H](C(=O)Cn2ccc(C#N)n2)[C@@]2(C)CC[C@H]3[C@@H](CC[C@@H]4C[C@](C)(O)CC[C@@H]43)[C@H]12` [Crystal form III, 1-(2-((3R,5R,8R,9R,10S,13S,14S,15R,17S)-3-Hydroxy-3,13,15-trimethylhexadecahydro-1H-cyclopenta[a]phenanthren-17-yl)-2-oxoethyl)-1H-pyrazole-3-carbonitrile], in series [1], the “solubility in n-heptane (in words)” value was “almost insoluble”. In addition, the Solubility in series [2] (FaSSGF) is below 1 µg/mL; in series [2] (FaSSIF), 4.914 µg/mL (≈ 11.6 µM); in series [2] (FeSSIF), 28.166 µg/mL (≈ 66.5 µM); in series [2] (Water), below 1 µg/mL. Also, in series [3], the “hygroscopicity (in words)” value is recorded as “no hygroscopicity”. For the same molecule, the “Hygroscopicity (25° C./80% RH)” value in series [3] turned out to be 0.10%.
